Laboratory results from patent US7413536B1, “Substrates and screening methods for transport proteins” (XenoPort, Inc., priority 1999, dated 2008).

Experiments:
[1] = target: T1, rat intestinal bile acid transporter (Rattus norvegicus, UniProt Q62633); test: Substrate activity for the intestinal bile acid transporter; format: cell-based
T1 sequence (Q62633 1-348): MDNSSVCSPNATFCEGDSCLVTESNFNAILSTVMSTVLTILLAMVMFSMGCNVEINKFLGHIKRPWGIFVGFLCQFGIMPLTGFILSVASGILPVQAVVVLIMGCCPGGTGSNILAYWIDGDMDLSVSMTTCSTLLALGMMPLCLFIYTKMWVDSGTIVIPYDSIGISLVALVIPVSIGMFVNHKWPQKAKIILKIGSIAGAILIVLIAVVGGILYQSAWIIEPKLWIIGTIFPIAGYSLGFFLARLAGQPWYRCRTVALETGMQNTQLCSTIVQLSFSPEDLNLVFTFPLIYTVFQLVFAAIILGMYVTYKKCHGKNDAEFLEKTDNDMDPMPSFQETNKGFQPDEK

Oral absorption in rat = format: in vivo

Compound | substrate for the rat intestinal bile acid transporter [1] | hydrolysis upon oral absorption (uncharacterized amidase activity) releasing parent drug (Oral absorption in rat) | oral absorption (Oral absorption in rat; rat)
COc1ccc2cc(C(C)C(=O)NCCCCC(NC(=O)CCC(C)C3CCC4C5C(O)CC6CC(O)CCC6(C)C5CC(O)C34C)C(=O)O)ccc2c1 (stereo not shown) [Cholyl-Lysine-(ε-Naproxen)-OH] | retains activity | hydrolyzed | –
cholyl-lys-(ε-NBD)-OH [cholyl-L-Lys-(ε-NBD)-OH] | substrate | – | effectively absorbed orally
